# Results reported in PMC11615292, “Fast-diffusing receptor collisions with slow-diffusing peptide ligand assemble the ternary parathyroid hormone–GPCR–arrestin complex” (Nature Communications, 2024).
# Legend:
# [1] = molecular target: T1, βarr2L69C-BIM (Homo sapiens, UniProt P32121, C126S/C141L/C151V/C17S/C243V/C252V/C270S/C409S/C60V/L69C); assay: bimane fluorescence titration, single-site fit; assay type: binding
# T1 construct: gene ARRB2; Cys-less full-length βarr2 with L69C in finger loop, labelled with monobromobimane at C69; E. coli NiCo21(DE3), pET-15b; N-terminal 6xHis-3C removed by 3C protease, GG-AviTag-GGSGGS linker kept
# Source text: bimane fluorescence titration, single-site fit on βarr2L69C-BIM | PIP3 binds βarr2 with higher affinity than PIP2 and induces a conformational change | Like PIP2 and V2Rpp, PIP3 induced a concentration-dependent increase in bimane fluorescence
# [2] = molecular target: PTH type 1 receptor C-terminally fused to monomeric NeonGreen (PTH1R^mNG) (human) (UniProt Q03431)
# Chain of PTH type 1 receptor C-terminally fused to monomeric NeonGreen (PTH1R^mNG) (human) (Q03431 27-593): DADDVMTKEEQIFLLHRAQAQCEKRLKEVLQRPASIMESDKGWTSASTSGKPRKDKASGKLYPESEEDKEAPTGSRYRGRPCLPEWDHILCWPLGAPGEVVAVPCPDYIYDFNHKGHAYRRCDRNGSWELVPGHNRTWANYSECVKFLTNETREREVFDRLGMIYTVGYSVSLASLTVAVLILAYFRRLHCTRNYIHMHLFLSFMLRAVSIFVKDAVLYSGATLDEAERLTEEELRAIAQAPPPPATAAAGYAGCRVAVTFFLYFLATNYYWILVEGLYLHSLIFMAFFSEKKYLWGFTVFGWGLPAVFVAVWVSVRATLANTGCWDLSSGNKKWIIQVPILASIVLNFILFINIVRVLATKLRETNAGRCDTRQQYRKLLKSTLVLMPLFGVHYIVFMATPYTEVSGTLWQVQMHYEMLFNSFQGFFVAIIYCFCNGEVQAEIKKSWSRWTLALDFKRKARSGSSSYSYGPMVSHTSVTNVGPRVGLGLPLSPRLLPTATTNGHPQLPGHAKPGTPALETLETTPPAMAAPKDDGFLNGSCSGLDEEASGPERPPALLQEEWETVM
# T1 sequence (P32121 whole entry C17S/C60V/L69C/C126S/C141L/C151V/C243V/C252V/C270S/C409S): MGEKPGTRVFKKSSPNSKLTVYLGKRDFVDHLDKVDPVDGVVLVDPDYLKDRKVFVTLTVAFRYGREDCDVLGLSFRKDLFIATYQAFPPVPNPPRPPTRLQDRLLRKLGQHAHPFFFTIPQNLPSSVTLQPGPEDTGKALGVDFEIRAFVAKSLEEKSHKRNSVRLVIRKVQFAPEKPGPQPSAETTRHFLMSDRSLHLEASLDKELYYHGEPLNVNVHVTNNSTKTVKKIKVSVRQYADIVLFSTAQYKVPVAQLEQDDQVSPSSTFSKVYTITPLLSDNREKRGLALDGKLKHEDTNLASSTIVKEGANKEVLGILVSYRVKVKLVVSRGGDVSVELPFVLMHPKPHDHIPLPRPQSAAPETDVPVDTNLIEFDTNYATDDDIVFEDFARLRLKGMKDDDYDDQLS
Kd [1] [µM],"average diffusion coefficient (D) of PTH1R^mNG molecules in the presence of PTH^TMR (0.088 µm^2/s in the absence of the ligand), single-molecule tracking [2] [µm^2/s]",Compound
64.8 ± 16.8,–,"CCCCCCCC(=O)OC[C@H](COP(=O)(O)O[C@@H]1[C@H](O)[C@H](O)[C@@H](OP(=O)(O)O)[C@H](OP(=O)(O)O)[C@H]1O)OC(=O)CCCCCCC [di-C8-PI(4,5)P2]"
15.5 ± 2.6,–,"CCCCCCCC(=O)OC[C@H](COP(=O)(O)O[C@H]1[C@H](O)[C@@H](OP(=O)(O)O)[C@H](OP(=O)(O)O)[C@@H](OP(=O)(O)O)[C@H]1O)OC(=O)CCCCCCC [diC8-PI(3,4,5)P3]"
–,0.02,PTH(1-34) labeled in position 13 with tetramethylrhodamine (PTH^TMR) (peptide)
